Data as given in the NIST ThermoML archive (doi:10.1021/je900799e).

Experiment: molar heat capacity at constant pressure
Conditions: Liquid, metal-bellows calorimeter

F/C=C/C(F)(F)F [trans-1,3,3,3-tetrafluoropropene]
molar heat capacity at constant pressure [J/K/mol]
Conditions | 310 K | 320 K | 330 K | 340 K | 350 K | 360 K | 370 K
2000 kPa | 165.36 | 168.78 | 175.62 | 188.17 | 206.42 | – | –
3000 kPa | 160.8 | 164.22 | 169.92 | 179.05 | 192.73 | 214.4 | 272.56
4000 kPa | 157.38 | 160.8 | 166.5 | 169.92 | 182.47 | 195.01 | 224.66
5000 kPa | 155.1 | 158.52 | 161.94 | 164.22 | 174.48 | 183.61 | 204.13
